US20230051589A1, “COMPOUNDS AND COMPOSITIONS FOR TREATING CONDITIONS ASSOCIATED WITH NLRP ACTIVITY” (Novartis AG, priority 2018, published 2023)
pIC50: −log10 of the molar value.

What follows are molecules tested on IL-1β production in PMA-differentiated THP-1 cells (assay: IL-1β production in PMA-differentiated THP-1 cells stimulated with gramicidin (hTHP-1 assay, 2% fetal bovine serum; Procedures 1-3)). Conditions: Homo sapiens, THP-1, Table B3; hTHP-1 assay containing 2% fetal bovine serum, gramicidin stimulation, IL-1β readout; read-out: hTHP-1 IC50.
Assay type: cell-based, human
How it was run: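 PMA-primed THP-1 cells (20 ng/ml PMA, 16-18 h) in RPMI with 2% FBS were pre-incubated with compounds for 1 h, from 100 μM downward in 3-fold steps (0.37% DMSO final), then stimulated with 5 μM gramicidin for 2 h. IL-1β in the supernatant was quantified by HTRF.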

| pIC50 | SMILES |
| --- | --- |
| 7.40 to 8.10 | CNC(c1ccc(S(N)(=O)=NC(=O)Nc2c3c(cc4c2CC4)CCC3)s1)C1CC1 (single isomer, unassigned) [Example 721, 5-((R) or (S)-cyclopropyl(methylamino)methyl)-N′-((2,4,5,6-tetrahydro-1H-cyclobuta[f]inden-3-yl)carbamoyl)thiophene-2-sulfonimidamide] |
| 5.30 to 6.00 | CC(C)c1cnc(S(N)(=O)=NC(=O)Nc2c3c(cc4c2CCC4)CCC3)c(F)c1 (stereo not shown) [Example 765, 3-Fluoro-N'-((1,2,3,5,6,7-hexahydro-s-indacen-4-yl)carbamoyl)-5-isopropylpyridine-2-sulfonimidamide] |

Same assay, conditions: Homo sapiens, THP-1, hTHP-1 assay containing 2% fetal bovine serum, Table B2, class symbols; read-out: IC50

| pIC50 | SMILES |
| --- | --- |
| 6.00 to 6.70 | C[C@@](O)(CO)c1ncc([S@@](N)(=O)=NC(=O)Nc2c3c(cc4c2C(=O)CC4)CCC3)s1 [Compound 920b] |
| 5.30 to 6.00 | CN1CCC[C@H](c2ccc([S@](N)(=O)=NC(=O)Nc3c4c(cc5c3CC5)CCC4)c(F)c2)C1 [Compound 911b] |
| 7.40 to 8.10 | C[C@](O)(CO)c1ncc([S@@](N)(=O)=NC(=O)Nc2c3c(cc4c2CC4)CCC3)s1 [Compound 919e] |

Same assay, conditions: Table B3; hTHP-1 assay containing 2% fetal bovine serum, gramicidin stimulation, IL-1β readout; read-out: hTHP-1 IC50

| pIC50 | SMILES |
| --- | --- |
| 5.30 to 6.00 | CNS(=O)(=O)c1cccc(S(N)(=O)=NC(=O)Nc2c3c(cc4c2CCC4)CCC3)c1 (single isomer, unassigned) [Example 792, (S) or (R)-3-(N′-((1,2,3,5,6,7-hexahydro-s-indacen-4-yl)carbamoyl)sulfamidimidoyl)-N-methylbenzenesulfonamide] |
| < 4.52 | COC1CCc2csc(S(N)(=O)=NC(=O)Nc3c4c(cc5c3CCC5)CCC4)c2C1 (single isomer, unassigned) [Example 856, (S, S) or (R, S)-N′-((1,2,3,5,6,7-hexahydro-s-indacen-4-yl)carbamoyl)-6-methoxy-4,5,6,7-tetrahydrobenzo[c]thiophene-1-sulfonimidamide] |
| 5.30 to 6.00 | NS(=O)(=NC(=O)Nc1c2c(cc3c1CC3)CCC2)c1cc2c(s1)CCN[C@@H]2C(F)F (single isomer, unassigned) [Example 875, (S or R,4S)-4-(difluoromethyl)-N′-((2,4,5,6-tetrahydro-1H-cyclobula[f]inden-3-yl)carbamoyl)-4,5,6,7-tetrahydrothieno[3,2-c]pyridine-2-sulfonimidamide] |
| < 4.52 | CN(Cc1ccc(S(N)(=O)=NC(=O)Nc2c3c(cc4c2CC4)CCC3)c(F)c1)C1CCC1 (single isomer, unassigned) [Example 798, (S) or (R)-4-((cyclobutyl(methyl)amino)methyl)-2-fluoro-N′-((2,4,5,6-tetrahydro-1H-cyclobuta[f]inden-3-yl)carbamoyl)benzenesulfonimidamide] |

Same assay, conditions: hTHP-1 assay containing 2% fetal bovine serum, Table B2, class symbols; read-out: IC50

| pIC50 | SMILES |
| --- | --- |
| 4.52 to 5.30 | CC(C)(O)c1cc(S(N)(=O)=NC(=O)Nc2c3c(c(C#N)c4c2CCC4)CCC3)nn1-c1ccccc1 (single isomer, unassigned) [Example 574, (S) or (R)-N′-((8-cyano-1,2,3,5,6,7-hexahydro-s-indacen-4-yl)carbamoyl)-5-(2-hydroxypropan-2-yl)-1-pheny-1H-pyrazole-3-sulfonimidamide] |
| 6.70 to 7.40 | CC(C)(O)c1ccc(S(N)(=O)=NC(=O)Nc2c3c(c(C#N)c4c2CCC4)CCC3)cn1 (single isomer, unassigned) [Example 545, (R) or (S)-N′-((8-cyano-1,2,3,5,6,7-hexahydro-s-indacen-4-yl)carbamoyl)-6-(2-hydroxypropan-2-yl)pyridine-3-sulfonimidamide] |
| 4.52 to 5.30 | CN(C)Cc1cnc(S(N)(=O)=NC(=O)Nc2c3c(cc4c2CCC4)CCC3)c(F)c1 (single isomer, unassigned) [Example 517, (S) or (R)-5-((dimethylamino)methyl)-3-fluoro-N′-((1,2,3,5,6,7-hexahydro-s-indacen-4-yl)carbamoyl)pyridine-2-sulfonimidamide] |
| 4.52 to 5.30 | NS(=O)(=NC(=O)Nc1c2c(cc3c1CC3)CCC2)c1ccc(CN2CCC2)cc1F (single isomer, unassigned) [Example 525, (S) or (R)-4-(azetidin-1-ylmethyl)-2-fluoro-N′-((2,4,5,6-tetrahydro-1H-cyclobuta[f]inden-3 - yl)carbamoyl) benzenesulfonimidamide] |
